The text below walks through data of ChEMBL document CHEMBL1201862, “PubChem BioAssay data set” (2004).

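These data come from cells grown in 96-well plates and exposed to compound for 48 hours at five concentrations. Abbreviation: GI50, concentration required for 50% inhibition of growth.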 Calls of active or inactive are those of the source. No stated cut-off is given here; in the data, active = GI50 up to about 1.1 µM and inactive = higher.

Some test systems named below: A498; BT-549; K562; SK-MEL-2; M14; NCI-H226; Malme-3M; MOLT-4; DU-145; T47D; CAKI-1; SNB-75; UACC-62; NCI-H23; KM12; HOP-92; COLO 205; SF-539; SK-OV-3; SF-295.
Common to all, as to assay: NCI tumour cell line growth inhibition, 48 h

On to `Cc1cccc(/N=N/C(=O)NNc2cccc(C)c2C)c1C`, for which the GI50 is 34 µM (inactive) in the experiment on A498; 23.3 µM (inactive) in the experiment with BT-549; 33.7 µM (inactive) with K562; 21.9 µM (inactive) in the experiment with SK-MEL-2; 41.8 µM (inactive) with M14; 38.8 µM (inactive) with NCI-H226. For the same compound, the GI50 in the experiment on Malme-3M was 21.7 µM (inactive); in the experiment on MOLT-4 it was > 10 µM (inactive); in the experiment on DU-145, 37 µM (inactive); in the experiment on T47D, 27.2 µM (inactive); in the experiment with CAKI-1, 39 µM (inactive); in the experiment on SNB-75 it was 54.3 µM (inactive). The GI50 in the experiment with UACC-62 was 29.5 µM (inactive); with NCI-H23, 32.7 µM (inactive).
Regarding `Cc1ccc(/C=N/Nc2cc(C)c3cccc(C)c3n2)s1`, the GI50 in the experiment on BT-549 was 5.45 µM (inactive); in the experiment on KM12 it was 7.31 µM (inactive); in the experiment on HOP-92, 6.4 µM (inactive); in the experiment with K562 it was 3.46 µM (inactive); in the experiment with COLO 205, 6.98 µM (inactive); in the experiment on SK-MEL-2 it was 16 µM (inactive). Also, the GI50 in the experiment with M14 is 4.33 µM (inactive); with NCI-H226 it was 9.02 µM (inactive); in the experiment with SF-539, 13.9 µM (inactive); in the experiment with SK-OV-3 it was 16.4 µM (inactive); in the experiment with Malme-3M it was 15.1 µM (inactive); with SF-295 it was 7.1 µM (inactive). For the same compound, the GI50 in the experiment with MOLT-4 is 3.21 µM (inactive); in the experiment with DU-145, 10.5 µM (inactive); in the experiment on T47D, 4.15 µM (inactive); in the experiment with CAKI-1, 15.8 µM (inactive); in the experiment on SNB-75, 11.9 µM (inactive); with UACC-62, 17.9 µM (inactive). Also, the GI50 in the experiment on NCI-H23 is 12.2 µM (inactive).
In the case of `N/N=C(\N)SCCCCCCCCCCS/C(N)=N/N`, the GI50 in the experiment on A498 is 15.1 µM (inactive); with BT-549 it was 19.5 µM (inactive); in the experiment on KM12, 20 µM (inactive); in the experiment with K562, 15.1 µM (inactive); in the experiment on COLO 205 it was 14.6 µM (inactive); with SK-MEL-2 it was 16.7 µM (inactive). For the same compound, the GI50 with M14 is 29.4 µM (inactive); with NCI-H226 it was 27 µM (inactive); in the experiment on SF-539, 29.6 µM (inactive); with SK-OV-3, < 0.01 µM (active); in the experiment with Malme-3M, 12 µM (inactive); with SF-295, 23 µM (inactive). In addition, the GI50 was 20.9 µM (inactive) in the experiment with DU-145; 5.57 µM (inactive) with T47D; 36.1 µM (inactive) with CAKI-1; 21.5 µM (inactive) with UACC-62; 25.8 µM (inactive) in the experiment with NCI-H23.
For the compound `CSCCC(NC(c1ccccc1)c1ccccc1)[PH](=O)O` (configuration not stated), the GI50 in the experiment with BT-549, in the experiment on KM12, in the experiment on HOP-92, with K562, with COLO 205 and with SK-MEL-2 was > 100 µM (inactive) throughout. The GI50 in the experiment on M14, in the experiment on NCI-H226, in the experiment on SK-OV-3, in the experiment on Malme-3M, with SF-295 and with MOLT-4 was > 100 µM (inactive) each time. Further, the GI50 in the experiment on DU-145, with T47D, with CAKI-1, in the experiment on SNB-75, with UACC-62 and in the experiment on NCI-H23 was > 100 µM (inactive) each time.
As for `CN(C(=S)Cc1ccc(Cl)c(Cl)c1)C1CCCC[C@@H]1N1CCCC1` (some centres not stated), the GI50 in the experiment with A498 was 13 µM (inactive); in the experiment on BT-549 it was 72.1 µM (inactive); in the experiment with KM12 it was 44.6 µM (inactive); in the experiment on K562, 61 µM (inactive); in the experiment on SK-MEL-2 it was 31.6 µM (inactive); in the experiment with M14 it was 18.2 µM (inactive). The GI50 is 46.6 µM (inactive) in the experiment on NCI-H226; 55.7 µM (inactive) with SF-539; 58.7 µM (inactive) with SK-OV-3; 17.1 µM (inactive) in the experiment on SF-295; 51.8 µM (inactive) in the experiment on MOLT-4; > 100 µM (inactive) in the experiment on DU-145. Further, the GI50 was 38 µM (inactive) in the experiment with T47D, 44.6 µM (inactive) with CAKI-1, 17.5 µM (inactive) in the experiment with UACC-62 and 44.2 µM (inactive) in the experiment on NCI-H23.
Consider `CC(=O)C1=CC=C/C1=N\Nc1ccccc1`, for which the GI50 in the experiment on BT-549 was 11 µM (inactive); with KM12, 4.38 µM (inactive); in the experiment on HOP-92 it was 11.7 µM (inactive); in the experiment with K562 it was 3.94 µM (inactive); with COLO 205, 9.42 µM (inactive); in the experiment on SK-MEL-2, 13.4 µM (inactive). Further, the GI50 is 10.8 µM (inactive) with M14; 17.3 µM (inactive) with NCI-H226; 2.36 µM (inactive) with SF-539; 16.6 µM (inactive) in the experiment with SK-OV-3; 14.6 µM (inactive) with Malme-3M; 11.8 µM (inactive) in the experiment on SF-295. Besides, the GI50 with MOLT-4 was 3.67 µM (inactive); in the experiment on DU-145, 14.9 µM (inactive); in the experiment on T47D, 3.33 µM (inactive); in the experiment with CAKI-1, 3.91 µM (inactive); with SNB-75, 9.33 µM (inactive); with UACC-62, 6.97 µM (inactive). The GI50 with NCI-H23 was 9.06 µM (inactive).
Consider `CC1C/C(=N\N(C)C)C(C#N)(C#N)C1(C#N)C#N` (configuration not stated), for which the GI50 in the experiment with BT-549 is 4.57 µM (inactive); with KM12 it was 27 µM (inactive); with HOP-92 it was 4.63 µM (inactive); with K562, 2.35 µM (inactive); with COLO 205, 1.82 µM (inactive); in the experiment on SK-MEL-2, 22.2 µM (inactive). The GI50 with M14 is 12.2 µM (inactive); in the experiment on NCI-H226, 30.2 µM (inactive); with SF-539, 18.1 µM (inactive); in the experiment with SK-OV-3, > 46.9 µM (inactive); in the experiment on Malme-3M it was 7.6 µM (inactive); in the experiment with SF-295 it was 20.8 µM (inactive). Also, the GI50 in the experiment with MOLT-4 was 2.63 µM (inactive); in the experiment on DU-145 it was 18.2 µM (inactive); with T47D, 10.8 µM (inactive); in the experiment on CAKI-1, 1.75 µM (inactive); in the experiment with SNB-75, 9.64 µM (inactive); with UACC-62, 13.8 µM (inactive). Moreover, in the experiment with NCI-H23, the GI50 is 20.5 µM (inactive).
In the case of `Cc1ccc(S(=O)(=O)NC2C(=O)c3ccccc3C(=O)C2n2cnc3ccccc32)cc1` (configuration not stated), the GI50 was 28.8 µM (inactive) in the experiment with BT-549; 9.4 µM (inactive) in the experiment with KM12; 14.4 µM (inactive) in the experiment with HOP-92; 90.6 µM (inactive) with K562; 20 µM (inactive) with COLO 205; 14.7 µM (inactive) with SK-MEL-2. In addition, the GI50 in the experiment on M14 was 25.3 µM (inactive); with NCI-H226, 42.8 µM (inactive); in the experiment with SF-539, 24.7 µM (inactive); with SK-OV-3, 66.5 µM (inactive); with Malme-3M it was 0.214 µM (active); in the experiment with SF-295 it was 37.8 µM (inactive). The GI50 is 19.2 µM (inactive) in the experiment with MOLT-4; 57.9 µM (inactive) in the experiment with DU-145; 25.2 µM (inactive) with T47D; 60 µM (inactive) in the experiment with CAKI-1; 30.3 µM (inactive) in the experiment on SNB-75; 28.3 µM (inactive) with UACC-62. Further, the GI50 with NCI-H23 is 23.9 µM (inactive).
For the compound `Cc1ccc(C(=O)Oc2ccccc2)cc1/N=N/N(C)C`, the GI50 in the experiment with BT-549 is > 100 µM (inactive); in the experiment with KM12, 53.3 µM (inactive); in the experiment on HOP-92 it was > 100 µM (inactive); in the experiment on K562, 76.4 µM (inactive); with COLO 205 it was > 100 µM (inactive); in the experiment with SK-MEL-2 it was > 100 µM (inactive). Moreover, the GI50 with M14 is > 100 µM (inactive); in the experiment on NCI-H226, > 100 µM (inactive); with SF-539, > 100 µM (inactive); with SK-OV-3, > 100 µM (inactive); in the experiment on Malme-3M, > 100 µM (inactive); in the experiment on SF-295 it was > 69.3 µM (inactive). For the same compound, the GI50 is > 100 µM (inactive) in the experiment on MOLT-4; > 100 µM (inactive) in the experiment on DU-145; 71.8 µM (inactive) with T47D; > 100 µM (inactive) in the experiment with CAKI-1; > 100 µM (inactive) with UACC-62; > 58.6 µM (inactive) in the experiment on NCI-H23.
As to `CC(=O)OCc1ccc2c(c1)C(O)NC(=O)O2` (configuration not stated), the GI50 was > 100 µM (inactive) with BT-549; 88.5 µM (inactive) in the experiment on KM12; > 100 µM (inactive) with HOP-92; 31 µM (inactive) with K562; > 100 µM (inactive) with COLO 205; > 100 µM (inactive) with SK-MEL-2. The GI50 is > 100 µM (inactive) in the experiment on M14; 96.6 µM (inactive) in the experiment with NCI-H226; > 100 µM (inactive) with SF-539; > 100 µM (inactive) in the experiment with SK-OV-3; 42.4 µM (inactive) in the experiment with Malme-3M; > 100 µM (inactive) with SF-295. Also, the GI50 with MOLT-4 is 12.8 µM (inactive); in the experiment on DU-145 it was > 100 µM (inactive); in the experiment with T47D, 34.6 µM (inactive); in the experiment with CAKI-1, > 100 µM (inactive); in the experiment with SNB-75, > 100 µM (inactive); in the experiment on UACC-62 it was > 100 µM (inactive). Besides, in the experiment on NCI-H23, the GI50 is > 100 µM (inactive).
On to `CC(C)(C)OC(=O)c1cnc(Cl)cn1`, for which the GI50 in the experiment on BT-549 was 48.5 µM (inactive); in the experiment on KM12, 22.3 µM (inactive); in the experiment with HOP-92, 3.12 µM (inactive); in the experiment with K562, 28.4 µM (inactive); with COLO 205, 71.3 µM (inactive); in the experiment with SK-MEL-2, 29.9 µM (inactive). For the same compound, the GI50 in the experiment on M14 was 29.4 µM (inactive); with NCI-H226, 34.9 µM (inactive); in the experiment on SF-539, > 100 µM (inactive); in the experiment on SK-OV-3, > 100 µM (inactive); in the experiment with Malme-3M, 51.6 µM (inactive); with SF-295, > 100 µM (inactive). The GI50 in the experiment on MOLT-4 was 27.3 µM (inactive); in the experiment with DU-145, 87.5 µM (inactive); in the experiment with T47D it was 35.2 µM (inactive); in the experiment with CAKI-1, 3.56 µM (inactive); in the experiment on SNB-75, > 100 µM (inactive); with UACC-62 it was 31.8 µM (inactive). Besides, the GI50 in the experiment on NCI-H23 was 20.7 µM (inactive).
